Test results taken from patent publication US20200397796A1, “METHODS OF TREATMENT OF CANCER COMPRISING CHK1 INHIBITORS” (SIERRA ONCOLOGY, INC., priority 2018, published 2020).
pIC50: −log10 of the molar value.

Tests used:
[1] = target: T1, Chk1 (Homo sapiens, UniProt O14757); conditions: limited off-target activity against other kinases; Walton et al.; cited from earlier work
T1 construct: endogenous in cells
T1 sequence (O14757 1-476): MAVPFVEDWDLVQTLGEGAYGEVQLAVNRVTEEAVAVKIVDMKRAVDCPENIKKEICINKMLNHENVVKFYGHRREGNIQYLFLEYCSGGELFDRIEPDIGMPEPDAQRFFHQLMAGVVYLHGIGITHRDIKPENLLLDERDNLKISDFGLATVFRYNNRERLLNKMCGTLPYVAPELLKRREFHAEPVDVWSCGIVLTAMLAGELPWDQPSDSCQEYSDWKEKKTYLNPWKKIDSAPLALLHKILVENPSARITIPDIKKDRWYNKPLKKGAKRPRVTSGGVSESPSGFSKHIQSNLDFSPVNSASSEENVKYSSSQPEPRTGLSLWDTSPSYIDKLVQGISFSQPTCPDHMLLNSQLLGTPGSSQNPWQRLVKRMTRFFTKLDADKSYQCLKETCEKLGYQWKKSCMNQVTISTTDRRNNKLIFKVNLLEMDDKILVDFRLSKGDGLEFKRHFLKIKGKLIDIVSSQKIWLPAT

[2] = Plasma protein binding, rapid equilibrium dialysis, dog; type: in vitro ADME; conditions: 10 μM
Procedure: (§1) The PK of SRA737 have been determined in the mouse, rat, dog and monkey following oral and IV administration (Table 3). […] An acceptable terminal elimination t1/2 was also observed in each species. […] The plasma protein binding of SRA737 at 1 and 10 μM was examined in mouse, minipig, monkey and human plasma using ultracentrifugation and in dog plasma (10 μM) using rapid equilibrium dialysis.

[3] = tested on: SW620 mouse colon cancer; test: In vivo efficacy, SW620 xenograft model; conditions: in combination with standard-dose gemcitabine; data not shown
Procedure: (§2) A program of in vivo efficacy studies was performed to assess the activity of SRA737 in combination with genotoxic chemotherapy and targeted agents, and as monotherapy.
(§3) One of these models also carried a MYCN amplification. A fourth HGSOC PDX model with partial resistance to PARPi was also sensitive to high dose SRA737 monotherapy.

[4] = tested on: HGSOC PDX model with partial resistance to PARPi; test: In vivo efficacy, HGSOC PDX model with partial resistance to PARPi; set-up: species or system mouse; conditions: high dose SRA737 monotherapy
Procedure: as §2, §3

[5] = tested on: human hepatocytes; test: Stability and metabolites in cryopreserved hepatocytes, human; type: in vitro ADME
Procedure: The formation of SRA737-related metabolites was determined in cryopreserved hepatocytes from human, mouse, rat, dog, minipig and monkey samples after incubation with SRA737 at a nominal concentration of 10 μM for up to 4 hours. […] In the human hepatocyte preparation, approximately 67% of the parent remained after 4 hours of incubation compared to 75% and 7% in the rat and minipig preparations, respectively. Eight human SRA737 metabolites were observed. All SRA737 metabolites formed by human hepatocytes were also formed by monkey hepatocytes. Six metabolites were present at equal or greater abundance in the monkey.

[6] = Plasma protein binding, ultracentrifugation, human; type: in vitro ADME; conditions: for Percentage Bound / Percentage Free: Human plasma
Procedure: as §1

[7] = target: CYP 2D6 (Homo sapiens, UniProt P10635); test: CYP inhibition, 2D6; type: in vitro ADME; conditions: highest concentration investigated
Chain of CYP 2D6 (P10635 whole entry): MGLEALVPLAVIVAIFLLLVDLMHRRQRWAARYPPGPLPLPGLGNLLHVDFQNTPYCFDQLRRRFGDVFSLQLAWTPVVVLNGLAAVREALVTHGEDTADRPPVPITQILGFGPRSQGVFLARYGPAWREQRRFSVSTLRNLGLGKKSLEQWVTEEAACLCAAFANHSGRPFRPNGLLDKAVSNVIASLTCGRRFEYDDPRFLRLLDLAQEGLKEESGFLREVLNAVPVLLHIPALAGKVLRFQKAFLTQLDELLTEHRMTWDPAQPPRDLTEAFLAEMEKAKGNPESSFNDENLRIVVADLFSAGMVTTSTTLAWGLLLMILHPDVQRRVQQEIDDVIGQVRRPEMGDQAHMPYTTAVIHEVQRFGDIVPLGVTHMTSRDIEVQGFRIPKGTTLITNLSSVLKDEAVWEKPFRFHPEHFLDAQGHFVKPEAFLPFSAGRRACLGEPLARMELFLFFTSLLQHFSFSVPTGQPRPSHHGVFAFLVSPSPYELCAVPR

[8] = tested on: HT29 human colon cancer; test: In vivo efficacy, HT29 xenograft model; set-up: species or system mouse; conditions: data not shown
Procedure: as §2, §3

N#Cc1cnc(Nc2cc(NCC3CNCCO3)c(C(F)(F)F)cn2)cn1 (centres unmarked) [SRA737, 5-[[4-[[morpholin-2-yl]methylamino]-5-(trifluoromethyl)-2-pyridyl]amino]pyrazine-2-carbonitrile]
inhibitor of Chk1 [1]: potent and selective inhibitor of Chk1
Percentage Bound [2]: 68.8%
Percentage Free [2]: 31.2%
antitumor activity [3]: Significant, dose-dependent antitumor activity
sensitivity to SRA737 [4]: sensitive
human-specific metabolites ([5]; compared with mouse, rat, dog, minipig and monkey hepatocytes): No human-specific metabolites
number of human SRA737 metabolites observed ([5]; human hepatocytes, 10 μM, up to 4 hours): Eight
parent remained ([5]; human hepatocytes, 10 μM, after 4 hours of incubation): approximately 67%
Percentage Bound ([6]; 1 μM): 87.7%
Percentage Free ([6]; 1 μM): 12.4%
Percentage Bound ([6]; 10 μM): 87.2%
Percentage Free ([6]; 10 μM): 12.8%
fraction unbound ([6]; human, plasma, humans, summary of 1 and 10 μM): ~0.13
pIC50 [7]: 4.30 to 5.00
antitumor activity ([8]; in combination with standard-dose gemcitabine): Significant, dose-dependent antitumor activity
synergy ([8]; with irinotecan): Synergy
synergy ([8]; with low-dose gemcitabine): Synergy
